Source: publication PMC5811606, “Characterization of ^111In-labeled Glucose-Dependent Insulinotropic Polypeptide as a Radiotracer for Neuroendocrine Tumors” (Scientific Reports, 2018)
Read-outs that look alike come from different tables or passages of the source.

Assay: Biodistribution study, BHK-GIPR tumor mice
Format: in vivo, BALB/c nude mice
Conditions: female, mouse, iv, total radioactivity, BHK-GIPR tumor BALB/c nude mice, i.v., 0.2 µg, mean n=5; for tissue uptake at 1 h / tissue uptake at 4 h / tissue uptake at 24 h: BALB/c nude; for tissue uptake at 24 h / tissue to tissue ratio at 24 h: 24 h p.i.
Protocol: All animal experiments were approved by the Animal Welfare Body of the Radboud University, Nijmegen, The Netherlands and carried out in accordance with their guidelines. Six to eight weeks old, female BALB/c nude mice and C3H mice were purchased from Janvier labs (Le Genest Saint Isle, France). For all in vivo experiments, 6-8 weeks old female BALB/c nude mice were injected subcutaneously in the right shoulder with 0.2 ml of a 2.5 × 10^7 cells/ml suspension of BHK-GIPR transfected cells or with 0.2 ml of a 2.5 × 10^7 cells/ml suspension of NES2Y cells mixed with matrigel (2:1) in the right shoulder. When the tumor reached a diameter of 2-5 mm, mice were randomly divided in groups.
BALB/c nude mice bearing BHK-GIPR transfected tumors were injected intravenously with approximately 3 MBq (peptide dose 0.2 µg = 0.04 nmol) of [Lys^37(^111In-DTPA)]N-acetyl-GIP1-42 via the tail vein. At various time points after injection (1, 4 and 24 hours), mice were euthanized by CO2/O2 suffocation and blood, tumor and other relevant tissues were dissected, weighed and measured in a well type gamma counter. The percentage injected dose per gram (%ID/g) was calculated for each tissue. To determine whether the GIP1-42 uptake was GIPR mediated, 25 µg of unlabeled GIP1-42 was co-injected in a separate group (n = 5) and mice were euthanized four hours post-injection. BALB/c nude mice bearing NES2Y tumors (n = 5) were injected intravenously with approximately 3 MBq (peptide dose 0.2 µg = 0.04 nmol) of [Lys^37(^111In-DTPA)]N-acetyl-GIP1-42 via the tail vein. One hour after injection, mice were euthanized by CO2/O2 suffocation and blood, tumor and other relevant tissues were dissected, weighed and measured in a well type gamma counter. The percentage injected dose per gram (%ID/g) was determined for each tissue. To determine whether the GIP1-42 uptake was GIPR mediated, 25 µg of unlabeled GIP1-42 was co-injected in a separate group (n = 2) and mice were euthanized one hours post-injection.

CC[C@H](C)[C@H](NC(=O)[C@H](CO)NC(=O)[C@H](Cc1ccc(O)cc1)NC(=O)[C@H](CC(=O)O)NC(=O)[C@H](CO)NC(=O)[C@@H](NC(=O)[C@H](Cc1ccccc1)NC(=O)[C@@H](NC(=O)CNC(=O)[C@H](CCC(=O)O)NC(=O)[C@H](C)NC(=O)[C@H](Cc1ccc(O)cc1)NC(C)=O)[C@@H](C)O)[C@@H](C)CC)C(=O)N[C@@H](C)C(=O)N[C@@H](CCSC)C(=O)N[C@@H](CC(=O)O)C(=O)N[C@@H](CCCCN)C(=O)N[C@H](C(=O)N[C@@H](Cc1c[nH]cn1)C(=O)N[C@@H](CCC(N)=O)C(=O)N[C@@H](CCC(N)=O)C(=O)N[C@@H](CC(=O)O)C(=O)N[C@@H](Cc1ccccc1)C(=O)N[C@H](C(=O)N[C@@H](CC(N)=O)C(=O)N[C@@H](Cc1c[nH]c2ccccc12)C(=O)N[C@@H](CC(C)C)C(=O)N[C@@H](CC(C)C)C(=O)N[C@@H](C)C(=O)N[C@@H](CCC(N)=O)C(=O)N[C@@H](CCCCN)C(=O)NCC(=O)N[C@@H](CCCCN)C(=O)N[C@@H](CCCCN)C(=O)N[C@@H](CC(N)=O)C(=O)N[C@@H](CC(=O)O)C(=O)N[C@@H](Cc1c[nH]c2ccccc12)C(=O)N[C@@H](CCCCNC(=O)CN(CCN(CCN(CC(=O)O)CC(=O)O)CC(=O)O)CC(=O)O)C(=O)N[C@@H](Cc1c[nH]cn1)C(=O)N[C@@H](CC(N)=O)C(=O)N[C@H](C(=O)N[C@H](C(=O)N[C@@H](CCC(N)=O)C(=O)O)[C@@H](C)O)[C@@H](C)CC)C(C)C)[C@@H](C)CC [[Lys^37(^111In-DTPA)]N-acetyl-GIP1-42, metal not drawn]
tissue uptake at 1 h (BHK-GIPR tumor, 0.2 ug, 1 h p.i., read-out: Tumor uptake): 4.69 %ID/g | tissue uptake at 4 h (BHK-GIPR tumor, 0.2 ug, 4 h p.i., read-out: Tumor uptake): 3.27 %ID/g | tissue uptake at 24 h (BHK-GIPR tumor, 0.2 ug, read-out: Tumor uptake): 2 ± 0.2 %ID/g | tissue uptake at 4 h (BHK-GIPR tumor, 4 h p.i. + xs (25 µg unlabeled GIP1-42), read-out: Tumor uptake): 0.8 ± 0.2 %ID/g | tissue uptake at 1 h (blood, 0.2 ug, 1 h p.i., read-out: Blood uptake): 0.248 %ID/g | tissue uptake at 4 h (blood, 0.2 ug, 4 h p.i., read-out: Blood uptake): 0.045 %ID/g | tissue uptake at 24 h (blood, 0.2 ug, read-out: Blood uptake): 0.017 %ID/g | tissue uptake at 4 h (blood, 4 h p.i. + xs (25 µg unlabeled GIP1-42), read-out: Blood uptake): 0.031 %ID/g | tissue uptake at 1 h (duodenum, 0.2 ug, 1 h p.i., read-out: Duodenum uptake): 0.561 %ID/g | tissue uptake at 4 h (duodenum, 0.2 ug, 4 h p.i., read-out: Duodenum uptake): 0.448 %ID/g | tissue uptake at 24 h (duodenum, 0.2 ug, read-out: Duodenum uptake): 0.378 %ID/g | tissue uptake at 4 h (duodenum, 4 h p.i. + xs (25 µg unlabeled GIP1-42), read-out: Duodenum uptake): 0.392 %ID/g | tissue uptake at 1 h (heart, 0.2 ug, 1 h p.i., read-out: Heart uptake): 0.2 %ID/g | tissue uptake at 4 h (heart, 0.2 ug, 4 h p.i., read-out: Heart uptake): 0.116 %ID/g | tissue uptake at 24 h (heart, 0.2 ug, read-out: Heart uptake): 0.081 %ID/g | tissue uptake at 4 h (heart, 4 h p.i. + xs (25 µg unlabeled GIP1-42), read-out: Heart uptake): 0.096 %ID/g | tissue uptake at 1 h (kidney, 0.2 ug, 1 h p.i., read-out: Kidney uptake): 211 %ID/g | tissue uptake at 4 h (kidney, 0.2 ug, 4 h p.i., read-out: Kidney uptake): 228 %ID/g | tissue uptake at 24 h (kidney, 0.2 ug, read-out: Kidney uptake): 173 %ID/g | tissue uptake at 4 h (kidney, 4 h p.i. + xs (25 µg unlabeled GIP1-42), read-out: Kidney uptake): 227 %ID/g | tissue uptake at 1 h (liver, 0.2 ug, 1 h p.i., read-out: Liver uptake): 1.1 %ID/g | tissue uptake at 4 h (liver, 0.2 ug, 4 h p.i., read-out: Liver uptake): 1.16 %ID/g | tissue uptake at 24 h (liver, 0.2 ug, read-out: Liver uptake): 0.695 %ID/g | tissue uptake at 4 h (liver, 4 h p.i. + xs (25 µg unlabeled GIP1-42), read-out: Liver uptake): 1.09 %ID/g | tissue uptake at 1 h (lung, 0.2 ug, 1 h p.i., read-out: Lung uptake): 0.545 %ID/g | tissue uptake at 4 h (lung, 0.2 ug, 4 h p.i., read-out: Lung uptake): 0.332 %ID/g | tissue uptake at 24 h (lung, 0.2 ug, read-out: Lung uptake): 0.184 %ID/g | tissue uptake at 4 h (lung, 4 h p.i. + xs (25 µg unlabeled GIP1-42), read-out: Lung uptake): 0.331 %ID/g | tissue uptake at 1 h (muscle, 0.2 ug, 1 h p.i., read-out: Muscle uptake): 0.135 %ID/g | tissue uptake at 4 h (muscle, 0.2 ug, 4 h p.i., read-out: Muscle uptake): 0.082 %ID/g | tissue uptake at 24 h (muscle, 0.2 ug, read-out: Muscle uptake): 0.058 %ID/g | tissue uptake at 4 h (muscle, 4 h p.i. + xs (25 µg unlabeled GIP1-42), read-out: Muscle uptake): 0.068 %ID/g | tissue uptake at 1 h (pancreas, 0.2 ug, 1 h p.i., read-out: Pancreas uptake): 0.296 %ID/g | tissue uptake at 4 h (pancreas, 0.2 ug, 4 h p.i., read-out: Pancreas uptake): 0.193 %ID/g | tissue uptake at 24 h (pancreas, 0.2 ug, read-out: Pancreas uptake): 0.137 %ID/g | tissue uptake at 4 h (pancreas, 4 h p.i. + xs (25 µg unlabeled GIP1-42), read-out: Pancreas uptake): 0.147 %ID/g | tissue uptake at 1 h (spleen, 0.2 ug, 1 h p.i., read-out: Spleen uptake): 0.603 %ID/g | tissue uptake at 4 h (spleen, 0.2 ug, 4 h p.i., read-out: Spleen uptake): 0.528 %ID/g | tissue uptake at 24 h (spleen, 0.2 ug, read-out: Spleen uptake): 0.493 %ID/g | tissue uptake at 4 h (spleen, 4 h p.i. + xs (25 µg unlabeled GIP1-42), read-out: Spleen uptake): 0.519 %ID/g | tissue uptake at 1 h (stomach, 0.2 ug, 1 h p.i., read-out: Stomach uptake): 0.502 %ID/g | tissue uptake at 4 h (stomach, 0.2 ug, 4 h p.i., read-out: Stomach uptake): 0.362 %ID/g | tissue uptake at 24 h (stomach, 0.2 ug, read-out: Stomach uptake): 0.258 %ID/g | tissue uptake at 4 h (stomach, 4 h p.i. + xs (25 µg unlabeled GIP1-42), read-out: Stomach uptake): 0.268 %ID/g | tissue to tissue ratio at 24 h (tumor and lung, 0.2 ug, read-out: Tumor/Lung): 11.3 | tissue to tissue ratio at 1 h (tumor/blood, 0.2 ug, 1 h p.i., read-out: Tumor/Blood): 21.8 | tissue to tissue ratio at 4 h (tumor/blood, 0.2 ug, 4 h p.i., read-out: Tumor/Blood): 77.6 | tissue to tissue ratio at 24 h (tumor/blood, 0.2 ug, read-out: Tumor/Blood): 130
